The assay concerns the target T1, human complement factor D (Homo sapiens, UniProt P00746).
T1 construct: purchased R&D Systems 1824-SE
As to the kind of experiment: In vitro enzyme inhibition (Z-Lys-SBzl/DTNB absorbance assay). It is filed as biochemical. To be noted: Complement Factor D (R&D Systems), substrate Z-Lys-SBzl, A405 nm; read-out: CFD IC50. Put shortly:
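Factor D (6.25 ng/μL before addition) preincubated 5 min RT with compound (8 points from 50 μM, 6-fold, 0.5% DMSO final) in 50 mM Tris/HCl pH 7.5, 1 M NaCl, then Z-Lys-SBzl/DTNB added (200 μM each before addition). A405 read kinetically every 30 s for 60 min; IC50 from variable-slope fit, controls with and without enzyme.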
T1 sequence (P00746 26-253): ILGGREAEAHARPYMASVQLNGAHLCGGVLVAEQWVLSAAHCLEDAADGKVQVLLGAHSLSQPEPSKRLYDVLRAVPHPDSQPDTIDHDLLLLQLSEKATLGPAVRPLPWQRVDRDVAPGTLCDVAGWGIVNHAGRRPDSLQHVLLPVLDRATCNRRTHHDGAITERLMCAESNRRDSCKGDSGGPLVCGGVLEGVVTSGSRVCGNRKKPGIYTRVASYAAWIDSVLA
The IC50 is the concentration needed to halve the response being measured. Consider `COC(=O)C(NC(=O)[C@@H]1[C@H]2CC[C@H](C2)N1C(=O)Cn1nc(C(N)=O)c2ccccc21)c1cccc(Cl)c1F` (stereo partly drawn) [Example 136, methyl 2-((1R,3S,4S)-2-(2-(3-carbamoyl-1H-indazol-1-yl)acetyl)-2-azabicyclo[2.2.1]heptane-3-carboxamido)-2-(3-chloro-2-fluorophenyl)acetate], for which the IC50 was 1000 to 10000 nM.
Turning to `NC(=O)c1nn(CC(=O)N2CC[C@H]2C(=O)NCc2cccc(Cl)c2F)cc1Br` [Example 187, (S)-4-bromo-1-(2-(2-((3-chloro-2-fluorobenzyl)carbamoyl)azetidin-1-yl)-2-oxoethyl)-1H-pyrazole-3-carboxamide], the IC50 was 1000 to 10000 nM.
The figure for `NC(=O)c1nn(CC(=O)N2[C@@H]3CC[C@@H](C3)[C@H]2C(=O)NCc2cc(C(=O)O)cc(Cl)c2F)c2ccccc12` [Example 111, 3-(((1R,3S,4S)-2-(2-(3-carbamoyl-1H-indazol-1-yl)acetyl)-2-azabicyclo[2.2.1]heptane-3-carboxamido)methyl)-5-chloro-4-fluorobenzoic acid] is 100 to 1000 nM; for `N#Cc1ccc(Cl)c(F)c1CNC(=O)[C@@H]1[C@H]2CC[C@H](C2)N1C(=O)Cn1nc(C(N)=O)c2ccccc21` [Example 119, 1-(2-((1R,3S,4S)-3-((3-chloro-6-cyano-2-fluorobenzyl)carbamoyl)-2-azabicyclo[2.2.1]heptan-2-yl)-2-oxoethyl)-1H-indazole-3-carboxamide] it is 1000 to 10000 nM.
The value for `NC(=O)c1nn(CC(=O)N2[C@@H]3CC[C@@H](C3)[C@H]2C(=O)NCc2cccc(Cl)n2)c2ccccc12` [Example 52, 1-(2-((1R,3S,4S)-3-(((6-chloropyridin-2-yl)methyl)carbamoyl)-2-azabicyclo[2.2.1]heptan-2-yl)-2-oxoethyl)-1H-indazole-3-carboxamide] was > 10000 nM; that for `N#Cc1ccc(Cl)nc1NC(=O)[C@@H]1[C@H]2CC[C@H](C2)N1C(=O)Cn1nc(C(N)=O)c2ccccc21` [Example 101, 1-(2-((1R,3S,4S)-3-((6-chloro-3-cyanopyridin-2-yl)carbamoyl)-2-azabicyclo[2.2.1]heptan-2-yl)-2-oxoethyl)-1H-indazole-3-carboxamide] was 100 to 1000 nM.
The figure for `COc1ccc2c(c1)c(C(C)=O)nn2CC(=O)N1[C@@H]2CC[C@@H](C2)[C@H]1C(=O)Nc1cccc(Cl)n1` [Example 79, (1R,3S,4S)-2-(2-(3-acetyl-5-methoxy-1H-indazol-1-yl)acetyl)-N-(6-chloropyridin-2-yl)-2-azabicyclo[2.2.1]heptane-3-carboxamide] is 100 to 1000 nM; for `NC(=O)Cc1ccc2c(C(N)=O)nn(CC(=O)N3[C@@H]4CC[C@@H](C4)[C@H]3C(=O)NCc3cccc(Cl)c3F)c2c1` [Example 128, 6-(2-amino-2-oxoethyl)-1-(2-((1R,3S,4S)-3-((3-chloro-2-fluorobenzyl)carbamoyl)-2-azabicyclo[2.2.1]heptan-2-yl)-2-oxoethyl)-1H-indazole-3-carboxamide] it is 1000 to 10000 nM; for `NC(=O)c1nn(CC(=O)N2[C@H](C(=O)Nc3cccc(Cl)n3)C[C@@H]3CCC[C@@H]32)c2ccc(C3CC3)cc12` [Example 162, 1-(2-((2S,3aS,6aS)-2-((6-chloropyridin-2-yl)carbamoyl)hexahydrocyclopenta[b]pyrrol-1(2H)-yl)-2-oxoethyl)-5-cyclopropyl-1H-indazole-3-carboxamide] it is 100 to 1000 nM.
As for `O=C(Nc1cccc(Cl)n1)[C@@H]1[C@H]2CC[C@H](C2)N1C(=O)Cn1nc(C(=O)N2CCC2)c2ccccc21` [Example 86, (1R,3S,4S)-2-(2-(3-(azetidine-1-carbonyl)-1H-indazol-1-yl)acetyl)-N-(6-chloropyridin-2-yl)-2-azabicyclo[2.2.1]heptane-3-carboxamide], the IC50 was > 10000 nM.
Regarding `NC(=O)n1nc(CC(=O)N2[C@@H]3CC[C@@H](C3)[C@H]2C(=O)NCc2cccc(Cl)c2F)c2ccccc21` [Example 100, 3-(2-((1R,3S,4S)-3-((3-chloro-2-fluorobenzyl)carbamoyl)-2-azabicyclo[2.2.1]heptan-2-yl)-2-oxoethyl)-1H-indazole-1-carboxamide], the IC50 fell in the range of 100 to 1000 nM.
`NC(=O)c1ccc2c(C(N)=O)nn(CC(=O)N3[C@@H]4CC[C@@H](C4)[C@H]3C(=O)Nc3cccc(Cl)n3)c2c1` [Example 124, 1-(2-((1R,3S,4S)-3-((6-chloropyridin-2-yl)carbamoyl)-2-azabicyclo[2.2.1]heptan-2-yl)-2-oxoethyl)-1H-indazole-3,6-dicarboxamide]: the 50% inhibitory concentration (IC50) lay in the range of 100 to 1000 nM.
The figure for `NC(=O)c1nn(CC(=O)N2[C@H](CO)C[C@H]2C(=O)NCc2cccc(Cl)c2F)c2ccccc12` [Example 197, 1-(2-(trans-2-((3-chloro-2-fluorobenzyl)carbamoyl)-4-(hydroxymethyl)azetidin-1-yl)-2-oxoethyl)-1H-indazole-3-carboxamide] is 1000 to 10000 nM; for `NC(=O)c1nn(CC(=O)N2[C@@H]3CC[C@@H](C3)[C@H]2C(=O)Nc2cccc(Cl)n2)c2cnccc12` [Example 2, 1-(2-((1R,3S,4S)-3-((6-chloropyridin-2-yl)carbamoyl)-2-azabicyclo[2.2.1]heptan-2-yl)-2-oxoethyl)-1H-pyrazolo[3,4-c]pyridine-3-carboxamide] it is 100 to 1000 nM; for `NC(=O)c1nn(CC(=O)N2[C@@H]3CC[C@@H](C3)[C@H]2C(=O)NCc2cc(CO)cc(Cl)c2F)c2ccccc12` [Example 114, 1-(2-((1R,3S,4S)-3-((3-chloro-2-fluoro-5-(hydroxymethyl)benzyl)carbamoyl)-2-azabicyclo[2.2.1]heptan-2-yl)-2-oxoethyl)-1H-indazole-3-carboxamide] it is 1000 to 10000 nM.
As for `NC(=O)c1nn(CC(=O)N2[C@H]3CC[C@H]([C@H](O)C3)[C@@H]2C(=O)NCc2cccc(Cl)c2F)c2ccccc12` [Example 153, (1S,3R,4S,5R)-2-(2-(3-carbamoyl-1H-indazol-1-yl)acetyl)-N-(3-chloro-2-fluorobenzyl)-5-hydroxy-2-azabicyclo[2.2.2]octane-3-carboxamide], the IC50 is > 10000 nM.
The figure for `NC(=O)c1nn(CC(=O)N2[C@@H]3CC[C@@H](C3)[C@H]2C(=O)Nc2cnc3ccccc3n2)c2ccccc12` [Example 45, 1-(2-oxo-2-((1R,3S,4S)-3-(quinoxalin-2-ylcarbamoyl)-2-azabicyclo[2.2.1]heptan-2-yl)ethyl)-1H-indazole-3-carboxamide] is 1000 to 10000 nM.
The value for `NC(=O)c1nn(CC(=O)N2[C@H](C(=O)Nc3cncc(Cl)c3)C[C@@H]3CCC[C@@H]32)c2ccccc12` [Example 161, 1-(2-((2S,3aS,6aS)-2-((5-chloropyridin-3-yl)carbamoyl)hexahydrocyclopenta[b]pyrrol-1(2H)-yl)-2-oxoethyl)-1H-indazole-3-carboxamide] was 1000 to 10000 nM; that for `O=C(NCCO)c1nn(CC(=O)N2[C@@H]3CC[C@@H](C3)[C@H]2C(=O)Nc2cccc(Cl)n2)c2ccccc12` [Example 89, 1-(2-((1R,3S,4S)-3-((6-chloropyridin-2-yl)carbamoyl)-2-azabicyclo[2.2.1]heptan-2-yl)-2-oxoethyl)-N-(2-hydroxyethyl)-1H-indazole-3-carboxamide] was 1000 to 10000 nM.

The values above are taken from patent US20190127366A1 (LifeSci Pharmaceuticals, Inc., priority 2015, published 2019).
